Laboratory results taken from patent US20220249599A1, “TREATMENT OF IMPLANTS WITH ENGINEERED ANTIMICROBIAL AMPHIPHILIC PEPTIDES” (priority 2018, published 2022).
Read-outs that look alike come from different tables or passages of the source. Ends that are not written are not given here.

Columns and labels:
Format in all cases: cell-based
[1] = tested on: Acinetobacter baumannii ATCC 19606 (non-MDR); conditions: Acinetobacter baumannii ATCC 19606 (non-MDR)
Summary of the method: (§1)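 CLSI broth microdilution; MHB II + 0.002% P80; 2-fold peptide series, top 32 mcg/mL final; 35° C., 16–20 hrs; MIC = lowest conc. with no visible growth. Peptides in PBS; SEQ ID NO:5 and 8 from DMSO stocks, 2.5% DMSO at first dilution.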

[2] = tested on: Enterococcus faecalis ATCC 29212 (VSE; QC); conditions: ATCC 29212
Summary of the method: as §1

[3] = tested on: Enterococcus faecalis ATCC 700802 (V583 VRE); conditions: ATCC 700802
Summary of the method: as §1

[4] = tested on: Enterococcus faecium ATCC 51559 (VRE); conditions: ATCC 51559
Summary of the method: as §1

[5] = tested on: Escherichia coli ATCC 25922 (QC); conditions: ATCC 25922
Summary of the method: as §1

[6] = tested on: Escherichia coli ATCC 35218 (ESBL); conditions: ATCC 35218
Summary of the method: as §1

[7] = tested on: Escherichia coli ATCC BAA-2471 (NDM-1); conditions: ATCC BAA-2471
Summary of the method: as §1

[8] = tested on: Klebsiella pneumoniae ATCC BAA-1705 (KPC); conditions: ATCC BAA-1705
Summary of the method: as §1

[9] = tested on: Pseudomonas aeruginosa ATCC 27853 (non-MDR; QC); conditions: ATCC 27853
Summary of the method: as §1

[10] = tested on: Pseudomonas aeruginosa ATCC BAA-2109 (MDR); conditions: ATCC BAA-2109
Summary of the method: as §1

[11] = tested on: Staphylococcus aureus ATCC 29213 (MSSA; QC); conditions: ATCC 29213
Summary of the method: as §1

[12] = tested on: Staphylococcus aureus ATCC 43300 (MRSA); conditions: ATCC 43300
Summary of the method: as §1

[13] = tested on: Staphylococcus aureus NRS382 (USA100; HA-MRSA); conditions: USA100
Summary of the method: as §1

[14] = tested on: Streptococcus agalactiae ATCC 13813
Summary of the method: as §1

[15] = tested on: Streptococcus pneumoniae ATCC 49619 (QC); conditions: ATCC 49619
Summary of the method: as §1

[16] = tested on: Streptococcus pyogenes ATCC 49399; conditions: ATCC 49399
Summary of the method: as §1

[17] = tested on: Acinetobacter spp. (n = 104)
Method: (§2) The clinical isolates were obtained from USA hospitals. […] Plates were incubated at 35° C. overnight.

[18] = tested on: Escherichia coli (n = 101); conditions: n = 101
Method: as §2

[19] = tested on: Klebsiella pneumoniae (n = 101)
Method: as §2

[20] = tested on: Pseudomonas aeruginosa (n = 109); conditions: P. aeruginosa colistin-resistant (COL^R) isolates, n 8
Method: as §2

RRWVRRVRRVWRRVVRVVRRWVRR-NH2 (C-terminus assumed) [SEQ ID NO: 1]
MIC [1]: 2 µg/mL | MIC [2]: 8 µg/mL | MIC [3]: 4 µg/mL | MIC [4]: 2 µg/mL | MIC [5]: 4 µg/mL | MIC [6]: 8 µg/mL | MIC [7]: 2 µg/mL | MIC [8]: 8 µg/mL | MIC [9]: 8 µg/mL | MIC [10]: 4 µg/mL | MIC [11]: 8 µg/mL | MIC [12]: 4 µg/mL | MIC [13]: 4 µg/mL | MIC [14]: 8 µg/mL | MIC [15]: 16 µg/mL | MIC [16]: 8 µg/mL | MIC90 [17]: 4 µg/mL | Mode (MIC) [17]: 4 µg/mL | MIC90 ([17]; Acinetobacter colistin-resistant (COL^R) isolates, n 21): 16 µg/mL | MIC90 [18]: 4 µg/mL | Mode (MIC) [18]: 2 µg/mL | MIC90 ([19]; K. pneumoniae colistin-resistant (COL^R) isolates, n 28): 16 µg/mL | Mode (MIC) ([19]; n = 101): 8 µg/mL | MIC90 [20]: 16 µg/mL
